PubChem BioAssay AID1963981 (Molecular Pharmacology Branch, DTP, NCI, 2024)

Test system: 354836-022-R-J1-PDC multicell spheroid viability
Assay: Anticancer human tumor 354836-022-R-J1-PDC patient-derived head and neck squamous cell carcinoma cell line growth inhibition [PI3K]
Details: for IC50: curve of first compound; for viability, T/C: stronger effect = lower value
Procedure, shortened: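 Spheroid viability read-out. Co-cultures contained the tumor line plus HUVEC and human MSCs. Each agent was paired with a PI3K inhibitor (inavolisib, alpelisib, duvelisib, copanlisib) across half-log dilutions starting at clinical Cmax, or at 10 microM when Cmax was unknown.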

[1] = second compound 0.0316 µM, first compound 0.0316 µM
[2] = second compound 0.0316 µM, first compound 0.1 µM
[3] = second compound 0.0316 µM, first compound 0.316 µM
[4] = second compound 0.0316 µM, first compound 1 µM
[5] = second compound 0.0316 µM, first compound 3.16 µM
[6] = second compound 0.0316 µM, first compound 10 µM
[7] = second compound 0.1 µM, first compound 0.0316 µM
[8] = second compound 0.1 µM, first compound 0.1 µM
[9] = second compound 0.1 µM, first compound 0.316 µM
[10] = second compound 0.1 µM, first compound 1 µM
[11] = second compound 0.1 µM, first compound 3.16 µM
[12] = second compound 0.1 µM, first compound 10 µM
[13] = second compound 0.316 µM, first compound 0.0316 µM
[14] = second compound 0.316 µM, first compound 0.1 µM
[15] = second compound 0.316 µM, first compound 0.316 µM
[16] = second compound 0.316 µM, first compound 1 µM
[17] = second compound 0.316 µM, first compound 3.16 µM
[18] = second compound 0.316 µM, first compound 10 µM
[19] = second compound 1 µM, first compound 0.0316 µM
[20] = second compound 1 µM, first compound 0.1 µM
[21] = second compound 1 µM, first compound 0.316 µM
[22] = second compound 1 µM, first compound 1 µM
[23] = second compound 1 µM, first compound 3.16 µM
[24] = second compound 1 µM, first compound 10 µM
[25] = second compound 3.16 µM, first compound 0.0316 µM
[26] = second compound 3.16 µM, first compound 0.1 µM
[27] = second compound 3.16 µM, first compound 0.316 µM
[28] = second compound 3.16 µM, first compound 1 µM
[29] = second compound 3.16 µM, first compound 3.16 µM
[30] = second compound 3.16 µM, first compound 10 µM
[31] = second compound 10 µM, first compound 0.0316 µM
[32] = second compound 10 µM, first compound 0.1 µM
[33] = second compound 10 µM, first compound 0.316 µM
[34] = second compound 10 µM, first compound 1 µM
[35] = second compound 10 µM, first compound 3.16 µM
[36] = second compound 10 µM, first compound 10 µM
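Note: spheroids exposed to agents for seven days before the viability read.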

Q: Which IC50 (second compound 0.0316 µM) does the source give for `C#Cc1c(F)ccc2cc(O)cc(-c3ncc4c(N5CC6CCC(C5)N6)nc(OCC56CCCN5CC(F)C6)nc4c3F)c12` (stereo unspecified) + CC(Nc1ncnc2nc[nH]c12)c1cc2cccc(Cl)c2c(=O)n1-c1ccccc1 here?
A: > 10 µM

Q: And the IC50 (second compound 0.1 µM)?
A: > 10 µM

Q: What about the IC50 (second compound 0.316 µM) of the same molecule?
A: > 10 µM

Q: What about the IC50 (second compound 1 µM) of the same molecule?
A: > 10 µM

Q: What about the IC50 (second compound 3.16 µM) of the same molecule?
A: > 10 µM

Q: What about the IC50 (second compound 10 µM) of the same molecule?
A: > 10 µM

Q: And the viability, T/C [1]?
A: 94.8%

Q: What about the viability, T/C [2] of the same molecule?
A: 85%

Q: What about the viability, T/C [3] of the same molecule?
A: 88.6%

Q: And the viability, T/C [4]?
A: 105%

Q: What about the viability, T/C [5] of the same molecule?
A: 85.5%

Q: And the viability, T/C [6]?
A: 96.4%

Q: And the viability, T/C [7]?
A: 84.9%

Q: And the viability, T/C [8]?
A: 105%

Q: What about the viability, T/C [9] of the same molecule?
A: 96.4%

Q: What about the viability, T/C [10] of the same molecule?
A: 96.2%

Q: And the viability, T/C [11]?
A: 110%

Q: What about the viability, T/C [12] of the same molecule?
A: 102%

Q: And the viability, T/C [13]?
A: 85.4%

Q: And the viability, T/C [14]?
A: 110%

Q: What about the viability, T/C [15] of the same molecule?
A: 103%

Q: What about the viability, T/C [16] of the same molecule?
A: 108%

Q: And the viability, T/C [17]?
A: 98.3%

Q: What about the viability, T/C [18] of the same molecule?
A: 89.9%

Q: And the viability, T/C [19]?
A: 91.1%

Q: And the viability, T/C [20]?
A: 86.9%

Q: What about the viability, T/C [21] of the same molecule?
A: 100%

Q: What about the viability, T/C [22] of the same molecule?
A: 92.3%

Q: What about the viability, T/C [23] of the same molecule?
A: 96.4%

Q: What about the viability, T/C [24] of the same molecule?
A: 74.9%

Q: And the viability, T/C [25]?
A: 95.4%

Q: What about the viability, T/C [26] of the same molecule?
A: 105%

Q: What about the viability, T/C [27] of the same molecule?
A: 96.3%

Q: And the viability, T/C [28]?
A: 110%

Q: What about the viability, T/C [29] of the same molecule?
A: 99%

Q: And the viability, T/C [30]?
A: 70%

Q: And the viability, T/C [31]?
A: 95.3%

Q: And the viability, T/C [32]?
A: 82.5%

Q: And the viability, T/C [33]?
A: 84.5%

Q: What about the viability, T/C [34] of the same molecule?
A: 80.8%

Q: And the viability, T/C [35]?
A: 78.4%

Q: And the viability, T/C [36]?
A: 75.1%

Q: For `CC(Cn1ccc(-c2ccc(C#N)c(Cl)c2)n1)NC(=O)c1cc(C(C)O)[nH]n1` (stereo unspecified) + CC(Nc1ncnc2nc[nH]c12)c1cc2cccc(Cl)c2c(=O)n1-c1ccccc1, which IC50 (second compound 0.0316 µM) is on record?
A: > 10 µM

Q: What about the IC50 (second compound 0.1 µM) of the same molecule?
A: > 10 µM

Q: What about the IC50 (second compound 0.316 µM) of the same molecule?
A: > 10 µM

Q: And the IC50 (second compound 1 µM)?
A: > 10 µM

Q: And the IC50 (second compound 3.16 µM)?
A: > 10 µM

Q: And the IC50 (second compound 10 µM)?
A: > 10 µM

Q: What about the viability, T/C [1] of the same molecule?
A: 99.3%

Q: And the viability, T/C [2]?
A: 91.8%

Q: And the viability, T/C [3]?
A: 96.6%

Q: And the viability, T/C [4]?
A: 112%

Q: What about the viability, T/C [5] of the same molecule?
A: 97.7%

Q: What about the viability, T/C [6] of the same molecule?
A: 84.4%

Q: What about the viability, T/C [7] of the same molecule?
A: 87.8%

Q: What about the viability, T/C [8] of the same molecule?
A: 102%

Q: What about the viability, T/C [9] of the same molecule?
A: 89.6%

Q: What about the viability, T/C [10] of the same molecule?
A: 104%

Q: And the viability, T/C [11]?
A: 85%

Q: And the viability, T/C [12]?
A: 93.3%

Q: And the viability, T/C [13]?
A: 91.2%

Q: And the viability, T/C [14]?
A: 90.6%

Q: And the viability, T/C [15]?
A: 97.6%

Q: What about the viability, T/C [16] of the same molecule?
A: 87.9%

Q: What about the viability, T/C [17] of the same molecule?
A: 101%

Q: What about the viability, T/C [18] of the same molecule?
A: 89.1%

Q: And the viability, T/C [19]?
A: 106%

Q: What about the viability, T/C [20] of the same molecule?
A: 91.4%

Q: And the viability, T/C [21]?
A: 93.1%

Q: And the viability, T/C [22]?
A: 108%

Q: What about the viability, T/C [23] of the same molecule?
A: 83.5%

Q: What about the viability, T/C [24] of the same molecule?
A: 78.8%

Q: And the viability, T/C [25]?
A: 113%

Q: And the viability, T/C [26]?
A: 96.8%

Q: What about the viability, T/C [27] of the same molecule?
A: 95%

Q: And the viability, T/C [28]?
A: 97.2%

Q: What about the viability, T/C [29] of the same molecule?
A: 90.7%

Q: And the viability, T/C [30]?
A: 83.7%

Q: And the viability, T/C [31]?
A: 96.5%

Q: What about the viability, T/C [32] of the same molecule?
A: 93.2%

Q: And the viability, T/C [33]?
A: 83.8%

Q: And the viability, T/C [34]?
A: 96.9%

Q: What about the viability, T/C [35] of the same molecule?
A: 95.2%

Q: And the viability, T/C [36]?
A: 75.7%

Q: For `CC1(C)CCC(Nc2ncc(C(F)(F)F)c(-c3c[nH]c4c(P(C)(C)=O)c(C#N)ccc34)n2)CN1` (stereo unspecified) + CC(Nc1ncnc2nc[nH]c12)c1cc2cccc(Cl)c2c(=O)n1-c1ccccc1, which IC50 (second compound 0.0316 µM) is on record?
A: < 0.0316 µM

Q: What about the IC50 (second compound 0.1 µM) of the same molecule?
A: < 0.0316 µM

Q: And the IC50 (second compound 0.316 µM)?
A: < 0.0316 µM

Q: What about the IC50 (second compound 1 µM) of the same molecule?
A: < 0.0316 µM

Q: What about the IC50 (second compound 3.16 µM) of the same molecule?
A: < 0.0316 µM

Q: And the IC50 (second compound 10 µM)?
A: < 0.0316 µM

Q: And the viability, T/C [1]?
A: 13.4%

Q: And the viability, T/C [2]?
A: 10.9%

Q: And the viability, T/C [3]?
A: 15.2%

Q: What about the viability, T/C [4] of the same molecule?
A: 12.4%

Q: And the viability, T/C [5]?
A: 13.8%

Q: And the viability, T/C [6]?
A: 1.65%

Q: What about the viability, T/C [7] of the same molecule?
A: 12.6%

Q: What about the viability, T/C [8] of the same molecule?
A: 13.2%

Q: What about the viability, T/C [9] of the same molecule?
A: 15.7%

Q: What about the viability, T/C [10] of the same molecule?
A: 16%

Q: And the viability, T/C [11]?
A: 16.1%

Q: What about the viability, T/C [12] of the same molecule?
A: 2.44%

Q: What about the viability, T/C [13] of the same molecule?
A: 11.3%

Q: And the viability, T/C [14]?
A: 13.9%

Q: What about the viability, T/C [15] of the same molecule?
A: 12.4%

Q: What about the viability, T/C [16] of the same molecule?
A: 14.8%

Q: And the viability, T/C [17]?
A: 14%

Q: What about the viability, T/C [18] of the same molecule?
A: 2.31%

Q: And the viability, T/C [19]?
A: 12.3%

Q: What about the viability, T/C [20] of the same molecule?
A: 13.2%

Q: And the viability, T/C [21]?
A: 14%

Q: What about the viability, T/C [22] of the same molecule?
A: 14.3%

Q: What about the viability, T/C [23] of the same molecule?
A: 16.8%

Q: What about the viability, T/C [24] of the same molecule?
A: 1.85%

Q: What about the viability, T/C [25] of the same molecule?
A: 10.7%

Q: And the viability, T/C [26]?
A: 13.8%

Q: And the viability, T/C [27]?
A: 13.7%

Q: What about the viability, T/C [28] of the same molecule?
A: 15%

Q: What about the viability, T/C [29] of the same molecule?
A: 16%

Q: And the viability, T/C [30]?
A: 1.2%

Q: And the viability, T/C [31]?
A: 17%

Q: And the viability, T/C [32]?
A: 16.9%

Q: What about the viability, T/C [33] of the same molecule?
A: 14.9%

Q: And the viability, T/C [34]?
A: 21.3%

Q: What about the viability, T/C [35] of the same molecule?
A: 16.8%

Q: And the viability, T/C [36]?
A: 0.91%
